Test results reported in patent US7074959B2, “Methods and systems for remediating hydrazine-contaminated equipment and/or surfaces” (New Mexico Highlands University, priority 2002, dated 2006).

How the values were obtained:
[1] = MSDS listing; cited from earlier work
[2] = solubility of the hydrazine/2-ketoglutaric acid adduct in water; assay type: physicochemical; details: allows separation of most of the adduct by simple filtration
From the text: FIG. 3 illustrates a schematic diagram 300 depicting a reaction of 2-ketoglutataric acid, which provides a near quantitative conversion of hydrazine to a 6-oxo-1,4,5,6-tetrahydro-pyridazine-3-carbonic acid, a preferred embodiment of the present invention. In general, the chemical transformation depicted in schematic diagram 300 of FIG. 3 allows for the removal of hydrazine from aqueous solutions generated by the decontamination processes described herein. The reaction with concentrated hydrazine also can provide the desired product with some evolution of heat.

SMILES: O=C1CCC(C(=O)O)=NN1 [6-oxo-1,4,5,6-tetrahydro-pyridazine-3-carbonic acid]
- known acute toxicities listed in MSDS [1]: does not list any known acute toxicities
- solubility in water [2]: low solubility
